# Reference: patent US7893284B2 (Sterix Limited, priority 2004, dated 2011)
# Where two headings read alike, the source gives them in different places.
# Experiments:
# [1] = tested on: MCF-7 cells; assay: Cell proliferation, microtiter plate assay (Cell Titer 96), MCF-7; format: cell-based
# Description: The effect of drugs on the proliferation of cells was measured using a microtiter plate assay (Cell Titer 96 proliferation assay, Promega, Hampshire, UK).
# [2] = tested on: Tubulin; assay: Inhibition of taxol-induced microtubule polymerization (turbidity at 350 nm); format: biochemical; conditions: 20 μM, tubulin 1 mg/ml, FIG. 3
# Description: The ability of drugs to inhibit taxol-induced polymerisation of tubulin was measured by turbidity at 350 nm. Tubulin (Cryoskeleton Inc., Denver, Colo.), at a final concentration of 1 mg/ml was incubated at 32° C. in G-PEM buffer [80 mM piperazine-N,N′-bis (2-ethane sulfonic acid) sequisodium salt, 1 mM MgCl2, 1 mM EGTA and 1 mM GTP (pH 6.8)] in the presence of taxol with or without estrone derivatives [20 μM].
# STX641 is thought to act as an anti-microtubule agent, i.e. to disrupt microtubule function. To show this, tubulin was incubated in the presence of taxol (a compound known to promote tubulin polymerisation). Taxol induced efficient in vitro microtubule assembly as reflected in the increase in turbidity as measured at 350 nm.
# [3] = tested on: MCF-7 Breast Cancer Cells; assay: Flow cytometric cell cycle analysis, MCF-7; format: cell-based; conditions: 500 nM
# Description: Flow cytometric cell cycle analysis was performed on 40% confluent populations of MCF-7s with 500 nM of compound.
# [4] = tested on: human umbilical vein endothelial cells (HUVECs); assay: Tubule formation, Angiogenesis kit, co-culture of HUVECs and dermal fibroblasts; format: cell-based; conditions: 0.05 μM and 0.1 μM, FIG. 7
# Description: The effects of drugs on tubule formation (measured as a marker of their anti-angiogenic potential) was assessed using an Angiogenesis kit (TCS-Cellworks Ltd (Bucks, UK). For this, human umbilical vein endothelial cells (HUVECs) were cultured in a 24-well plate within a matrix of human diploid fibroblasts of dermal origin. The co-cultured cells were incubated throughout the experiment at 37° C. under 5% CO2 in a humidified incubator. On day 1, the culture medium was removed and replaced with medium containing the drugs under investigation. On days 4, 7 and 9, the medium was replaced with fresh medium containing the drugs under investigation. On day 11, the cells were washed with PBS and 70% ethanol (1 ml) added to each well for 30 min to fix the cells. After fixation, the cells were washed with blocking buffer (1 ml PBS+1% bovine serum albumin, Sigma, UK) and stained with either von Willebrand's factor or CD31. The extent of tubule formation was quantified by manual scoring or by computer analysis. Images were captured using a Kodak DC120 digital camera. In addition, details of changes in tubule formation induced by drugs were also recorded by high definition scanning of plates with some of the scans being presented as Photoshop processed images.
# In this assay, the ability of STX641 (and related compounds) to act as an inhibitor of angiogenesis was examined using a co-culture of HUVECs and dermal fibroblasts. In this system, the endothelial cells initially form small islands within the fibroblast matrix. They subsequently proliferate and enter a migratory phase during which they move through the matrix to form thread-like tubule structures. These coalesce to form a network of anastomosing tubules. In FIG. 5, for untreated (control) co-cultures of HUVECs and dermal fibroblasts, the thread-like nature of the extensive tubule network is clearly visible. […] In FIG. 6, plates have been recorded by high definition scanning and also processed to give pixalated images.
# [5] = biological target: T1, Placental Microsomal Steroid Sulphatase (Homo sapiens, UniProt P08842); assay: Inhibition of steroid sulphatase activity in placental microsomes (Protocol 2); format: biochemical
# T1 construct: Sulphatase-positive human placenta from normal term pregnancies are thoroughly minced with scissors; from tissue; host or cells: human term placenta (2000 g supernatant of homogenate)
# T1 sequence (P08842 22-583): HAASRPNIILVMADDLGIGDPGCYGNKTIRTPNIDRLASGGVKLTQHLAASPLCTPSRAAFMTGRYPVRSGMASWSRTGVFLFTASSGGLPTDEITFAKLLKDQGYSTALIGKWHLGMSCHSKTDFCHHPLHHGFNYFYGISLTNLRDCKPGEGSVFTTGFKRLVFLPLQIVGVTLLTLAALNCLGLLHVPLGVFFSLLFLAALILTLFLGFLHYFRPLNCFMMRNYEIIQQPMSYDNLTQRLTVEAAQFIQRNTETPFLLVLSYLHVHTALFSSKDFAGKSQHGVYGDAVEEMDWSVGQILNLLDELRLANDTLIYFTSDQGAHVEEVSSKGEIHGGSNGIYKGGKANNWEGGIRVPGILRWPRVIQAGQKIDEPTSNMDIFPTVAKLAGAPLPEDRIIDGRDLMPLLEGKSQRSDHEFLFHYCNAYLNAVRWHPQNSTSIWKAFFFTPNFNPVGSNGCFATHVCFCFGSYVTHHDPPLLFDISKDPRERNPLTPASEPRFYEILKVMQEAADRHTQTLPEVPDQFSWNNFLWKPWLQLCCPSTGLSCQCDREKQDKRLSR
# Description: Assay for Determining STS Activity Using Placental Microsomes (Protocol 2)
# Inhibition of Steroid Sulphatase Activity in Placental Microsomes
# Sulphatase-positive human placenta from normal term pregnancies are thoroughly minced with scissors and washed once with cold phosphate buffer (pH 7.4, 50 mM) then re-suspended in cold phosphate buffer (5 ml/g tissue). Homogenisation is accomplished with an Ultra-Turrax homogeniser, using three 10 second bursts separated by 2 minute cooling periods in ice. Nuclei and cell debris are removed by centrifuging (4° C.) at 2000 g for 30 minutes and portions (2 ml) of the supernatant are stored at […] The protein concentration of the supernatants is determined by the method of Bradford (Anal. Biochem., 72, 248-254 (1976)).
# . The mixture is shaken thoroughly for 30 seconds with toluene (5 ml). Experiments have shown that >90% [14C]oestrone and <0.1% [3H]oestrone-3-sulphate is removed from the aqueous phase by this treatment. A portion (2 ml) of the organic phase was removed, evaporated and the 3H and 14C content of the residue determined by scintillation spectrometry. The mass of oestrone-3-sulphate hydrolysed is calculated from the 3H counts obtained (corrected for the volumes of the medium and organic phase used, and for recovery of [14C]oestrone added) and the specific activity of the substrate.
# [6] = Homo sapiens, MCF7, read-out: IC50 in μM for the growth inhibition of MCF-7 cells
# [7] = read-out: IC50 in μM for the growth inhibition of MCF-7 cells
SMILES,"IC50 [1, 6] [µM]",also measured
"CCOC(=O)/C=C1\CCC2C3CCc4cc(OS(N)(=O)=O)c(CC)cc4C3CC[C@]12C (stereo in doubt) [Compound 15, (2-Ethyl-13-methyl-3-sulfamoyloxy-6,7,8,9,11,12,13,14,15,16-decahydro-cyclopenta[a]phenanthren-17-ylidene)-acetic acid ethyl ester]",1.85,
"CCOC(=O)C[C@H]1CCC2C3CCc4cc(O)c(CC)cc4C3CC[C@@]21C (stereo in doubt) [Compound 22, (2-Ethyl-3-hydroxy-13-methyl-7,8,9,11,12,13,14,15,16,17-decahydro-6H-cyclopenta[a]phenanthren-17-yl)-acetic acid ethyl ester]",26.4,
"CCOC(=O)C[C@H]1CCC2C3CCc4cc(OS(N)(=O)=O)c(CC)cc4C3CC[C@@]21C (stereo in doubt) [Compound 23, (2-Ethyl-13-methyl-3-sulfamoyloxy-7,8,9,11,12,13,14,15,16,17-decahydro-6H-cyclopenta[a]phenanthren-17-yl)-acetic acid ethyl ester]",4.19,
"CCc1cc2c(cc1O)CCC1C2CC[C@@]2(C)C1CC[C@@H]2CC#N (stereo in doubt) [Compound 27, (2-Ethyl-3-hydroxy-13-methyl-7,8,9,11,12,13,14,15,16,17-decahydro-6H-cyclopenta[a]phenanthren-17-yl)-acetonitrile]",,inhibition of taxol-induced polymerisation of tubulin [2]: effectively blocked tubulin assembly
"COc1cc2c(cc1O)CCC1C2CC[C@@]2(C)C1CC[C@@H]2CC#N (stereo in doubt) [Compound 32, (3-Hydroxy-2-methoxy-13-methyl-7,8,9,11,12,13,14,15,16,17-decahydro-6H-cyclopenta[a]phenanthren-17-yl)-acetonitrile]",0.3,"G2/M arrest (cells in G2/M) ([3]; 8 h, control 16%): 27%; cells G2/M arrested ([3]; 24 h, control 28%): 18%; inhibition of taxol-induced polymerisation of tubulin [2]: effectively blocked tubulin assembly"
"CCOC(=O)/C=C1/CCC2C3CCc4cc(O)c(CC)cc4C3CC[C@]12C (some centres unmarked) [Compound 14a, Z- and E-(2-Ethyl-3-hydroxy-13-methyl-6,7,8,9,11,12,13,14,15,16-decahydro-cyclopenta[a]phenanthren-17-ylidene)acetic acid ethyl ester]",30.6,
"CCOC(=O)/C=C1\CCC2C3CCc4cc(O)c(CC)cc4C3CC[C@]12C (some centres unmarked) [Compound 14b, Z- and E-(2-Ethyl-3-hydroxy-13-methyl-6,7,8,9,11,12,13,14,15,16-decahydro-cyclopenta[a]phenanthren-17-ylidene)acetic acid ethyl ester]",31.1,
"CCc1cc2c(cc1O)CCC1C2CC[C@]2(C)/C(=C\CO)CCC12 (some centres unmarked) [Compound 17a, Z- and E-2-Ethyl-17-(2-hydroxy-ethylidene)-13-methyl-7,8,9,11,12,13,14,15,16,17-decahydro-6H-cyclopenta[a]phenanthren-3-ol]",0.67,
"CCc1cc2c(cc1O)CCC1C2CC[C@]2(C)/C(=C/CO)CCC12 (some centres unmarked) [Compound 17b, Z- and E-2-Ethyl-17-(2-hydroxy-ethylidene)-13-methyl-7,8,9,11,12,13,14,15,16,17-decahydro-6H-cyclopenta[a]phenanthren-3-ol]",0.77,
"CCc1cc2c(cc1O)CCC1C2CC[C@@]2(C)C1CC[C@@H]2CCO (some centres unmarked) [Compound 19, 2-Ethyl-17-(2-hydroxy-ethyl)-13-methyl-7,8,9,11,12,13,14,15,16,17-decahydro-6H-cyclopenta[a]phenanthren-3-ol]",2.52,
"CCc1cc2c(cc1OS(N)(=O)=O)CCC1C2CC[C@@]2(C)C1CC[C@@H]2CCOS(N)(=O)=O (some centres unmarked) [Compound 20, Sulfamic acid 2-ethyl-13-methyl-17-(2-sulfamoyloxy-ethyl)-7,8,9,11,12,13,14,15,16,17-decahydro-6H-cyclopenta[a]phenanthren-3-yl ester]",5.64,
"CCc1cc2c(cc1O)CCC1C2CC[C@@]2(C)C1CC[C@@H]2CC#N (some centres unmarked) [Compound 27, (2-Ethyl-3-hydroxy-13-methyl-7,8,9,11,12,13,14,15,16,17-decahydro-6H-cyclopenta[a]phenanthren-17-yl)-acetonitrile]",3.24,
"CCc1cc2c(cc1OS(N)(=O)=O)CCC1C2CC[C@@]2(C)C1CC[C@@H]2CC#N (some centres unmarked) [Compound 28, Sulfamic acid 17-cyanomethyl-2-ethyl-13-methyl-7,8,9,11,12,13,14,15,16,17-decahydro-6H-cyclopenta[a]phenanthren-3-yl ester]",,inhibition of taxol-induced polymerisation of tubulin [2]: effectively blocked tubulin assembly; inhibition of tubule formation quantified by computer analysis [4]: completely inhibited tubule formation
"COc1cc2c(cc1O)CCC1C2CCC2(C)C(=CC#N)CCC12 (centres unmarked) [Compound 30, Z- and E-(3-Hydroxy-2-methoxy-13-methyl-6,7,8,9,11,12,13,14,15,16-decahydro-cyclopenta[a]phenanthren-17-ylidene)-acetonitrile]",,"IC50 [1, 7]: 3.22 µM"
"COc1cc2c(cc1O)CCC1C2CC[C@@]2(C)C1CC[C@@H]2NCCN(C)C (some centres unmarked) [Compound 36, 17-(2-Dimethylamino-ethylamino)-2-methoxy-13-methyl-7,8,9,11,12,13,14,15,16,17-decahydro-6H-cyclopenta[a]phenanthren-3-ol]",3.25,
"COCCOC1CCC2C3CCc4cc(O)c(OC)cc4C3CCC12C (centres unmarked) [Compound 51, 2-Methoxy-17-(2-methoxy-ethoxy)-13-methyl-7,8,9,11,12,13,14,15,16,17-decahydro-6H-cyclopenta[a]phenanthren-3-ol]",6.02,
"CCc1cc2c(cc1O)CC[C@@H]1[C@@H]2CC[C@]2(C)[C@@H](OS(C)(=O)=O)CC[C@@H]12 [Compound 59, 2-Ethyl-17-O-mesyl estradiol]",,"IC50 [1, 7]: 5.58 µM"
"CCc1cc2c(cc1OS(N)(=O)=O)CC[C@@H]1[C@@H]2CC[C@]2(C)[C@@H](OS(C)(=O)=O)CC[C@@H]12 [Compound 60, 2-Ethyl-3-O-sulfamoyl-17-O-mesyl estradiol]",0.09,IC50 [5]: > 10 µM
